Values of other authors as cited in patent US10869938B2, “Magnetic resonance imaging” (1C TARGETS AS, priority 2007, dated 2020).
Read-outs that look alike come from different tables or passages of the source.

System: healthy myocardial cells
Conditions: healthy individuals

Cc1ncc(COP(=O)(O)O)c(CN(CCN(CC(=O)[O-])Cc2c(COP(=O)(O)O)cnc(C)c2O)CC(=O)[O-])c1O.[Mn+2] [MnDPDP, manganese (II) chelate of N,N′-bis-(pyridoxal-5-phosphate)-ethylenediamine-N,N′-diacetic acid]
manganese tissue concentration versus time curve (5 minute infusion): biphasic curve
manganese tissue concentration versus time curve (30 minute infusion): increased steadily
